Results taken from paper PMC4175417 (Journal of clinical pharmacology, 2013).
Where two headings read alike, the source gives them in different places. Marks after values point to notes of the source that are not given here.

Experiments:
mRCC patients [1] = assay: Efficacy in mRCC studies; type: in vivo, human
mRCC = details: second-line therapy for mRCC; cited from earlier work
mRCC patients [2] = details: cited from earlier work
[3] = In-clinic diastolic blood pressure in mRCC patients of the PK/PD analysis; type: in vivo, human; details: maximum post-baseline dBP within the first 8 weeks; 168 mRCC patients
[4] = cited from earlier work
clinical = details: human, in vivo
[5] = cited from earlier work; remark: listed apart in the source
Axitinib exposure = type: in vivo; details: human, plasma, oral
[6] = corrected serum calcium <10 mg/dL
[7] = corrected serum calcium ≥10 mg/dL
[8] = corrected serum calcium ≥10 vs <10 mg/dL
[9] = hemoglobin >13 g/dL for male, >11.5 for female
[10] = hemoglobin ≤13 g/dL for male, ≤11.5 for female
[11] = per 10 mm Hg increase of dBP, adjusted for prognostic factors
[12] = per 100 hxng/mL increase of AUC, adjusted for prognostic factors
[13] = sorafenib- vs cytokine-refractory

## CNC(=O)c1ccccc1Sc1ccc2c(/C=C/c3ccccn3)n[nH]c2c1 [axitinib]
mRCC patients [1]; AUC <300 hxng/mL
  mOS: 15.8 months
  mPFS: 7.4 months
mRCC patients [1]; AUC ≥300 hxng/mL
  mOS: 37.4 months
  mPFS: 13.8 months
mRCC patients [1]; ECOG PS
  OS HR (95% CI), multivariate: 2.37 (1.50, 3.72)
  PFS HR (95% CI), multivariate: 1.82 (1.17, 2.83)
mRCC patients [1]; ECOG PS 0
  mOS: 41.6 months
  mPFS: 13.7 months
mRCC patients [1]; ECOG PS 1
  mOS: 10.7 months
  mPFS: 7.13 months
mRCC patients [1]; ECOG PS 1 vs 0
  OS HR (95% CI), univariate: 3.63 (2.40, 5.48)
  PFS HR (95% CI), univariate: 2.17 (1.46, 3.23)
mRCC patients [1]; age, continuous
  OS HR (95% CI), univariate: 0.992 (0.972, 1.01)
  PFS HR (95% CI), univariate: 1.006 (0.986, 1.026)
mRCC patients [1]; [6]
  mOS: 27.7 months
  mPFS: 11.1 months
mRCC patients [1]; [7]
  mOS: 16.4 months
  mPFS: 8.38 months
mRCC patients [1]; [8]
  OS HR (95% CI), univariate: 1.74 (1.03, 2.96)
  PFS HR (95% CI), univariate: 1.21 (0.688, 2.13)
mRCC patients [1]; cytokine-refractory
  mOS: 30.0 months
  mPFS: 13.0 months
mRCC patients [1]; dBP <90 mm Hg
  mOS: 18.5 months
  mPFS: 7.86 months
mRCC patients [1]; dBP ≥90 mm Hg
  mOS: 29.5 months
  mPFS: 14.6 months
mRCC patients [1]; female
  mOS: 19.6 months
  mPFS: 7.63 months
mRCC patients [1]; female vs male
  OS HR (95% CI), univariate: 1.26 (0.799, 1.97)
  PFS HR (95% CI), univariate: 1.63 (1.09, 2.46)
mRCC patients [1]; for every 100 hxng/mL increase in AUC, logistic regression
  Increase in the probability of achieving a partial response: 1.5 fold
mRCC patients [1]; gender
  PFS HR (95% CI), multivariate: 1.72 (1.14, 2.60)
mRCC patients [1]; hemoglobin
  OS HR (95% CI), multivariate: 0.348 (0.213, 0.567)
  PFS HR (95% CI), multivariate: 0.601 (0.393, 0.921)
mRCC patients [1]; [9]
  mOS: 43.3 months
  mPFS: 14.6 months
mRCC patients [1]; [10]
  mOS: 15.9 months
  mPFS: 7.69 months
mRCC patients [1]; high vs low hemoglobin
  OS HR (95% CI), univariate: 0.282 (0.179, 0.443)
  PFS HR (95% CI), univariate: 0.537 (0.364, 0.792)
mRCC patients [1]; male
  mOS: 27.7 months
  mPFS: 13.0 months
mRCC patients [1]; [11]
  OS HR (95% CI), multivariate: 0.739 (0.586, 0.931)
  PFS HR (95% CI), multivariate: 0.660 (0.519, 0.839)
mRCC patients [1]; [12]
  OS HR (95% CI), multivariate: 0.866 (0.773, 0.968)
  PFS HR (95% CI), multivariate: 0.909 (0.832, 0.993)
mRCC patients [1]; prior therapy
  OS HR (95% CI), multivariate: 2.12 (1.35, 3.34)
  PFS HR (95% CI), multivariate: 1.60 (1.04, 2.47)
mRCC patients [1]; [13]
  OS HR (95% CI), univariate: 2.15 (1.39, 3.34)
  PFS HR (95% CI), univariate: 1.55 (1.02, 2.34)
mRCC patients [1]; sorafenib-refractory
  mOS: 15.8 months
  mPFS: 7.63 months
mRCC
  Efficacy versus sorafenib: superior efficacy over sorafenib
mRCC patients [2]; study 2, cytokine-refractory mRCC
  RECIST-based overall response rate: 44%
mRCC patients [2]; study 4, sorafenib-refractory mRCC
  RECIST-based overall response rate: 23%
mRCC patients [2]; study 5, Japanese cytokine-refractory mRCC
  RECIST-based overall response rate: 50%
[3]
  dBP, median (range): 90 (58–116) ^e mm Hg
Form XLI
  Effect of food on oral bioavailability: negligible effect
Final model
  Vp (volume of distribution in peripheral compartment): 393 L
human, in vivo
  Age >60-yr effect on CL: −0.213
  F with Form XLI: g F with Form XLI is estimated to be 0.402; calculated as 0.457 × (1 – 0.121). Note that there was no observed food effect with Form XLI.
  F, fasting with Form IV: f For fasting effect with Form IV, F is estimated to be 0.608; calculated as 0.457 × (1 + 0.33).
  Fasting effect on ka: 1.97
  Fasting on F, Form IV: 0.330
  Japanese ethnicity effect on CL: −0.249
  Q (apparent inter-compartmental clearance): 4.00 (86.8) ^d L/h
  Smoking status on CL: 1.02
  ka (first-order absorption rate constant): fed: 0.482 (77) hour^–1
  ka higher in the fasted state compared with the fed state: 197%
  ka, fasting: e For fasting effect, ka is estimated to be 1.43 hour^−1; calculated as 0.482 hour^−1 × (1 + 1.97).
  tlag (absorption lag time): 0.454 h
human, in vivo, po
  Increase of oral bioavailability in the fasted state compared with the fed state: 33%
[4]; mild hepatic impairment
  Exposure compared with normal hepatic function: did not alter axitinib exposures
[4]; moderate hepatic impairment
  Higher exposure compared with normal hepatic function: 2 fold
clinical
  Vd: 47.3 L
  clearance: 243 mL/min
[5]; oral administration, fed state
  Time to peak plasma concentration: 2 to 6 h
[5]; study 1, patients with solid tumors
  Maximum tolerated dose (MTD): 5 mg bid
Axitinib exposure
  AUC: 375 ng·h/mL
